{
  "source": "paper PMC7291828",
  "about": "(Journal of medicinal chemistry, 2019)",
  "key": {"[1]": {"tested_on": "MCF7, HCT116 and HeLa cells", "conditions": "≥20 μM, apparently off-target (membrane disruption)"}, "SW480 cells": {"tested_on": "SW480 cells", "conditions": "up to 50 μM"}, "HeLa cells": {"tested_on": "HeLa cells", "test": "Live-cell confocal microscopy of FAM-labeled peptides", "type": "cell-based", "conditions": "5 μM FAM-labeled peptide, 2 h, 1% FBS"}, "SJSA-1 cells": {"tested_on": "SJSA-1 cells", "test": "MTT viability assay, SJSA-1 cells", "type": "cell-based, human"}, "[2]": {"conditions": "cited from earlier work"}},
  "note": "Where a SMILES comes first, the peptide text is derived from it. Bridges are numbered along the chain shown (N, C = ends). Roman numbers before positions name the chains, in order. [ ]: non-standard residue; d: D form. 2Nal = N[C@@H](Cc1ccc2ccccc2c1)C(=O)O; Dap = NC[C@H](N)C(=O)O; AEEA = NCCOCCOCC(=O)O",
  "data": [
    {"compound": "CC(=O)N[C@@H](CC(C)C)C(=O)N[C@H](C(=O)N[C@@H](Cc1ccccc1)C(=O)N[C@H]1CC(=O)NCCCC[C@@H](C(=O)N[C@@H](CCC(N)=O)C(=O)N[C@@H](CC(C)C)C(=O)N[C@H](C(=O)N[C@@H](CO)C(=O)NCCOCCOCC(=O)N[C@@H](CCCCNC(=O)CC[C@@H]2NC(=O)[C@@H](CCCNC(=N)N)NC(=O)[C@H](CCCNC(=N)N)NC(=O)[C@@H](CCCNC(=N)N)NC(=O)[C@H](CCCNC(=N)N)NC(=O)[C@H](Cc3ccc4ccccc4c3)NC(=O)[C@@H](Cc3ccccc3)NC2=O)C(N)=O)[C@@H](C)O)NC(=O)[C@H](Cc2c[nH]c3ccccc23)NC(=O)[C@H](Cc2ccc(O)cc2)NC(=O)[C@H](Cc2cnc[nH]2)NC1=O)[C@@H](C)O", "note": "[Peptide 4] (I: Ac-LTFDHYWKQLTS[AEEA]K-NH2 / II: cyclo([2Nal]R[dR]R[dR]E[dF]); lactam I:4-I:8; amide I:14-II:6)", "values": [
      {"measurement": "effect on cell viability at higher concentrations", "setting": "[1]", "result": "almost complete loss of cell viability"}
    ]},
    {"compound": "CC[C@H](C)[C@@H]1NC(=O)[C@@H](NC(=O)[C@H](CCC(=O)O)NC(=O)[C@@H]2CCCN2C(=O)[C@H](Cc2ccc(O)cc2)NC(=O)CNC(=O)CNC(C)=O)CC(=O)NCCCC[C@@H](C(=O)N[C@@H](Cc2cnc[nH]2)C(=O)N[C@@H](CC(C)C)C(=O)N[C@@H](CCC(N)=O)C(=O)N[C@@H](CCCNC(=N)N)C(=O)N[C@H](C(=O)N[C@H](C(=O)N[C@@H](CC(C)C)C(=O)NCCOCCOCC(=O)NCCOCCOCC(=O)N[C@@H](CNC(=O)CC[C@@H]2NC(=O)[C@@H](CCCNC(=N)N)NC(=O)[C@H](CCCNC(=N)N)NC(=O)[C@@H](CCCNC(=N)N)NC(=O)[C@H](CCCNC(=N)N)NC(=O)[C@H](Cc3ccc4ccccc4c3)NC(=O)[C@@H](Cc3ccccc3)NC2=O)C(N)=O)[C@@H](C)CC)C(C)C)NC(=O)[C@H](CC(=O)O)NC(=O)[C@H](CC(C)C)NC1=O", "note": "[Peptide 9] (I: Ac-GGYPEDILDKHLQRVIL[AEEA][AEEA][Dap]-NH2 / II: cyclo([2Nal]R[dR]R[dR]E[dF]); lactam I:6-I:10; amide I:20-II:6)", "values": [
      {"measurement": "LDH release from SW480 cells", "setting": "SW480 cells", "result": "did not cause significant LDH release"}
    ]},
    {"compound": "Ac-EETFCHYWCQLTS-miniPEG-K(FAM) (bicyclic or more) [Peptide 25]", "values": [
      {"measurement": "intracellular fluorescence", "setting": "HeLa cells", "result": "brightly fluorescent"}
    ]},
    {"compound": "Ac-ETFCHYWCQLTS-miniPEG-K(FAM) (bicyclic or more) [Peptide 23]", "values": [
      {"measurement": "intracellular fluorescence", "setting": "HeLa cells", "result": "brightly fluorescent"}
    ]},
    {"compound": "Ac-LTFCHYWCQLTS-miniPEG-K(FAM) (bicyclic or more) [Peptide 21]", "values": [
      {"measurement": "intracellular fluorescence", "setting": "HeLa cells", "result": "brightly fluorescent"}
    ]},
    {"compound": "Ac-LTFDHYWKQLTS-miniPEG-K(R9) (sidechain bridge or staple) [Peptide 7]", "values": [
      {"measurement": "effect on viability of SJSA-1 cells", "setting": "SJSA-1 cells", "result": "did not cause significant reduction"}
    ]},
    {"compound": "Ac-LTFDHYWKQLTS-miniPEG-K(Tat) (sidechain bridge or staple) [Peptide 6]", "values": [
      {"measurement": "effect on viability of SJSA-1 cells", "setting": "SJSA-1 cells", "result": "did not cause significant reduction"}
    ]},
    {"compound": "nonaarginine [Peptide R9]", "values": [
      {"measurement": "fold lower cytosolic delivery efficiency than cyclic CPP9", "setting": "[2]", "result": 15, "unit": "fold"}
    ]}
  ]
}
